What was measured:
[1] = tested on: 5-HT1A serotonin receptor sites; conditions: background statement, no reference given; cited from earlier work
5-HT1A receptors = biological target: T1, 5-HT1A receptors (Rattus norvegicus, UniProt P19327); assay: Radioligand binding, displacement of [3H]-8-OH-DPAT in rat hippocampus
T1 sequence (P19327 1-422): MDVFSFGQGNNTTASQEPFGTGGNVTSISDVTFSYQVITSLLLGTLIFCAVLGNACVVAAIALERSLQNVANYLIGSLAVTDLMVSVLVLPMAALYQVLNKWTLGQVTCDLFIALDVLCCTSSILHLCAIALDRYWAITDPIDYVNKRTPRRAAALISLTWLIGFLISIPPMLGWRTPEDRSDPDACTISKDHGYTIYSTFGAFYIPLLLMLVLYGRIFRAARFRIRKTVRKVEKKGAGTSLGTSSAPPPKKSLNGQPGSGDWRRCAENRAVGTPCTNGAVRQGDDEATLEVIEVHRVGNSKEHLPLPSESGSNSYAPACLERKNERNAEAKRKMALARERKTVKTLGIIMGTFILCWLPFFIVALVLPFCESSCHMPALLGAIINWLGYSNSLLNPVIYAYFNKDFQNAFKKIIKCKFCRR

5-HT2A receptors = 5-HT2A receptors (Rattus norvegicus, UniProt P14842); assay: Radioligand binding, displacement of [3H]-ketanserin in rat cortex
Sequence of 5-HT2A receptors (P14842 whole entry): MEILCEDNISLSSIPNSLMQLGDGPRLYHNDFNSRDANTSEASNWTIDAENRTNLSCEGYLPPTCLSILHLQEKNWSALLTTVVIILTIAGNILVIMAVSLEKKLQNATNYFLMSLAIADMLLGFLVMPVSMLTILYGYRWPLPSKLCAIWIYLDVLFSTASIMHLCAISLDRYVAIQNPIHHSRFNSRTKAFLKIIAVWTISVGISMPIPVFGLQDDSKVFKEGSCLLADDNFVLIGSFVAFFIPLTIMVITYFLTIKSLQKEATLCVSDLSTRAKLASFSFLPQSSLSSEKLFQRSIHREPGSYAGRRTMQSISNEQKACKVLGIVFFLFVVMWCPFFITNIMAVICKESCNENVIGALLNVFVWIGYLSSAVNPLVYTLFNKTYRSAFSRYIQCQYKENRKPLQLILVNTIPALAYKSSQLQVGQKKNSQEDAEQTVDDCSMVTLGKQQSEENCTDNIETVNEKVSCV

SMILES	binding to 5-HT1A serotonin receptor sites (in words) [1]	Ki (5-HT1A receptors)	Ki (5-HT2A receptors)
O=C1CC2(CCCC2)CC(=O)N1CCCCN1CCN(c2ncccn2)CC1 [Buspirone, {4-[4-(2-pyrimidinyl)-1-piperazinyl]butyl}-8-azaspiro[4.5]decane-7,9-dione]	high affinity and selectivity	–	–
O=c1ccc(=O)n(-c2ccccc2)n1CCCCN1CCN(c2ccccc2)CC1 [Compound 9c, 2-[4-(4-phenyl-1-piperazinyl)butyl]-1-phenyl-1,2-dihydropyridazine-3,6-dione]	–	19 ± 1 nM	409 ± 17 nM
CC1(C)CC(=O)N(CCCCN2CCN(c3ncccn3)CC2)C(=O)C1 [Gepirone]	high affinity and selectivity	–	–
O=c1c2ccccc2c(=O)n(-c2ccccc2)n1CCCCN1CCN(c2ccccc2)CC1 [Compound 8c, 3-[4-(4-phenyl-1-piperazinyl)butyl]-2-phenyl-2,3-dihydrophthalazine-1,4-dione]	–	119 ± 8 nM	309 ± 1 nM
O=C1c2ccccc2S(=O)(=O)N1CCCCN1CCN(c2ncccn2)CC1 [Ipsapirone]	high affinity and selectivity	–	–

— article PMC6236407 (Molecules : A Journal of Synthetic Chemistry and Natural …, 2001)
